Measured values published in patent US20110152166A1, “METHOD OF MODULATION OF PROTEIN PHOSPHORYLATION-DEPENDENT CONFORMATIONAL TRANSITIONS WITH LOW MOLECULAR WEIGHT COMPOUNDS” (priority 2006, published 2011).

Key:
[1] = molecular target: T1, PDK1 activation of SGK1 [Ser422Asp] (Homo sapiens, UniProt O15530); experiment: SGK1 activation by PDK1 in vitro; format: biochemical; details: compound 60 μM
T1 construct: GST (N); made in house; host or cells: HEK293
Method: (§1) FIG. 4—Small compounds designed to bind the HM/PIF-pocket of PDK1 can block the PDK1-dependent phosphorylation and activation of substrates that require docking to the HM/PIF-pocket of PDK1. (A) Effect of compound 1 (100 and 200 μM) on PDK1 phosphorylation of its substrate S6K1. The phosphorylation reaction was performed in vitro with [γ^32P]ATP and then separated on SDS-PAGE followed by exposure to phosphorimager. The radioactive band corresponding to phosphorylated GST-56K1-T2[Thr412Glu] (S6K[412E]) is indicated. (B) PDK1 or PDK1[Val127Leu] (PDK1[V127L]) were pre-incubated with GST-[…]N-SGK1 [Ser422Asp] […] (C) The activity of S6K was measured in vitro after glutathione sepharose purification; aliquots of purified proteins were separated on SDS-PAGE and the level of activation loop phosphorylation was visualized by immunoblotting using phospho-specific antibodies that recognize the phosphorylated activation loop, followed by stripping of the membranes and re-probing with anti-GST to verify the presence of equal amounts of protein. (D) Cells overexpressing GST-56K1-T2[Thr412Glu] were treated as in (C) but S6K activity was measured in vitro after immunoprecipitation of the GST-fusion protein with anti-GST antibodies; the level of S6K expression was analysed by western-blotting of crude extracts. […]

[2] = test system: GST-S6K1-T2[Thr412Glu] in HEK 293 cells; experiment: S6K activity and activation loop phosphorylation in transfected HEK 293 cells; format: cell-based, human; details: 200 μM, 90 minutes
Method: as §1

[3] = molecular target: T2, PDK1 (Homo sapiens, UniProt O15530); experiment: PDK1 kinase activity with S6K tail peptides; format: biochemical
T2 sequence (O15530 1-556): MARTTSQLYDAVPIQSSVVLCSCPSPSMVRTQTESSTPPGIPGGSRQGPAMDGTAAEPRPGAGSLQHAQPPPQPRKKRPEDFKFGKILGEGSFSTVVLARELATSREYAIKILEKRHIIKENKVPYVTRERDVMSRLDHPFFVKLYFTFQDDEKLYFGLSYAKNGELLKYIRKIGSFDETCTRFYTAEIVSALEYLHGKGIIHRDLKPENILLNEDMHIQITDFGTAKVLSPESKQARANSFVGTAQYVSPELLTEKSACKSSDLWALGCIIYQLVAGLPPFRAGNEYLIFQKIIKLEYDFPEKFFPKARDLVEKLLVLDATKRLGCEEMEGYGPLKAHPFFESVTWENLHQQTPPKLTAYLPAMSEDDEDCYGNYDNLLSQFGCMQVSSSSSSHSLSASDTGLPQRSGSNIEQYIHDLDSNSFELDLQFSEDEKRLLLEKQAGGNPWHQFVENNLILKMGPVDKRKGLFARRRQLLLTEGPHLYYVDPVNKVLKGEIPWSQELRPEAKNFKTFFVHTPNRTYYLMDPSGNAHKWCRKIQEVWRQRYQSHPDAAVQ
Method: FIG. 21 (A) Aliquots of S6K1 protein from bar 1, 2, 5 and 6 in FIG. 5B were subjected to immunoblotting with phosphorylation site specific Ab against the activation loop or anti-HA Ab. (B) The kinase activity of PKB<143-479, prephosphorylated by PDK1 in the activation loop, was determined in the presence of increasing concentrations of synthetic PRK2 tail peptides encompassing the HM, which were either nonphosphorylated (PIFtide) or phosphorylated at the tail site (pT958-PIFtide). […] (C) The kinase activity of purified PDK1 was determined in the presence of increasing concentrations of synthetic S6K tail peptide (residues 366-395) that was either phosphorylated at T389 (S371/pT389) or phosphorylated at both 5389 and 5371 (pS371/pT389). Kinase activity is expressed as percent, and data are means+/−SD of 3 independent experiments. (D) Synthetic S371/pT389 S6K tail peptide and pS371/pT389 S6K tail peptide were biotinylated and used to coat streptavidin Sensor Chips. PDK150-360 was injected at different concentrations (0.05-5.4 mM) onto the peptide coated chips. In the inserts, the kinetic constants were obtained by fitting the data to a hyperbola using kaleidagraph software. Representative results from one of several experiments are shown.

Row | Molecule | SGK1 activation by PDK1 (in words) [1] | S6K1-T2[Thr412Glu] activity after cell treatment (in words) [2] | phosphorylation at the activation loop of S6K1-T2[Thr412Glu] (in words) [2] | activation of PDK1 by tail peptide (in words) [3]
1 | O=C(O)CSC(CC(=O)c1ccc(Cl)cc1)c1ccccc1 (stereo not shown) [Compound 1] | inhibited | decrease | decrease in the phosphorylation at the activation loop | 
2 | S371/pT389: synthetic S6K1 tail peptide (residues 366-395) phosphorylated in the HM |  |  |  | activated to the same extent
